The text below walks through data of patent EP0655506B1 (priority 1994, dated 1995).

Assay in all cases: Gel electrophoresis-based rate of incorporation of dideoxynucleotides relative to deoxynucleotides, 1:1 ratio of dNTPs to ddNTPs (Example 6)
Test [1] has as its target T1, T7 DNA polymerase (28 amino acid deletion in the exonuclease domain, complexed with thioredoxin), tyrosine at residue 526 (WT) (Escherichia phage T7, UniProt P00581, DEL118-145).
T1 construct: made in house; host or cells: strain that produces E. coli thioredoxin, lac promoter
It is filed as biochemical, bacteriophage T7. The conditions noted are these: for D, discrimination factor (ratio of the use of a specific dNTP to the use of the comparable ddNTP at equal concentrations): 100 µM 4dNTPs and 100 µM of one ddNTP, 5 mM MgCl2, 37 °C; for Incorporation Rate Ratios (dN/ddN): stated to be the absolute ratios obtained in Example 6 (1:1 dNTPs to ddNTPs). An excerpt: (§1) The primary application of this test is to determine the absolute ratio of incorporation of a ddNMP to a dNMP for a DNA polymerase that efficiently incorporates dideoxynucleotides, such as T7 DNA polymerase, E. coli DNA polymerase I mutant F762Y or Taq DNA polymerase mutant F667Y. It can also indicate the level of discrimination against ddNTPs of any DNA polymerase; however, for DNA polymerases that discriminate strongly against ddNTPs, such as T7 DNA polymerase mutant Y526F, E. coli DNA polymerase I or Taq DNA polymerase, higher ratios of ddNTP to dNTP are necessary to determine precisely their level of discrimination, which is described in detail in Example 7.
(§2) DNA synthesis reactions are carried out on the ^32P-end labeled 40 mer-M 13 mGP1-2 DNA template complex prepared as described in Example 3. Reaction conditions are used that are optimum for the DNA polymerase being tested with regard to buffer, pH, salts, and temperature of the reaction. A concentration of DNA polymerase is chosen whereby most of the primers are extended in a 10 min reaction and are terminated by the incorporation of a dideoxynucleotide. The reaction mixture contains 100 µM 4dNTPs and 100 µM of one of the four ddNTPs.
(§3) We used this test to compare the ability of six DNA polymerases to incorporate each of the four ddNMPs. The DNA polymerases tested were (1) T7 DNA polymerase with a 28 amino acid deletion in the exonuclease domain and complexed in a one-to-one ratio with thioredoxin (Tabor and Richardson 264 J. Biol. Chem. 6447, 1989) (referred to here as "T7 DNA polymerase"), (2) The large fragment of E. coli DNA polymerase I, commonly called the Klenow fragment (referred to here as "E. coli DNA polymerase I"), (3) Unmodified DNA polymerase from Thermus aquaticus (referred to here as "Taq DNA polymerase"), (4) T7 DNA polymerase as described above in which the tyrosine at residue 526 has been changed to a phenylalanine (referred to here as "T7 DNA polymerase Y526F"), (5) E. coli DNA polymerase I as described above in which the phenylalanine at residue 762 has been changed to a tyrosine (referred to here as "E. coli DNA polymerase I F762Y"), and (6) Taq DNA polymerase as described above in which the phenylalanine at residue 667 has been changed to a tyrosine (referred to here as "Taq DNA polymerase F667Y").
(§4) The reaction mixtures also contained 10 ng of yeast inorganic pyrophosphatase to inhibit pyrophosphorolysis that could otherwise increase the apparent discrimination by the DNA polymerase (Tabor and Richardson 265 j. Biol. Chem. 8322, 1990). The reactions were initiated by the addition of 2 µl of each DNA polymerase, diluted in 20 mM TrisHCl, pH 7.5, 10 mM 2-mercaptoethanol and 0.05% bovine serum albumin to a concentration of approximately 0.025 units/µl. The concentration of each DNA polymerase was sufficient to extend most of the labeled primers by more than 500 nucleotides in the absence of ddNTPs in a 15 min reaction. The reaction mixtures were incubated for 15 min at either 37 °C (T7 DNA polymerase, T7 DNA polymerase Y526F, E. coli DNA polymerase I, and E. coli DNA polymerase F762Y) or 70 °C (Taq DNA polymerase and Taq DNA polymerase F667Y). The reactions were terminated by the addition of 10 µl 90% formamide, 20 mM EDTA, 0.05% bromphenol blue. Each sample was heated at 90°C for 2 min immediately prior to loading 6 µl of each sample onto a gel consisting of 8% polyacrylamide, 0.4% N,N'-methylenebisacrylamide, 7 M urea in 100 mM Trisborate, pH 8.3, 1 mM EDTA. Electrophoresis was at 2000 Volts for 90 min (until the bromphenol blue had just run off the bottom of the gel). After electrophoresis, the gel was dried under vacuum, and autoradiographed. After autoradiography, the distribution of radioactively labeled fragments was determined by Phosphorimager analysis (Molecular Dynamics). […]

Another test has as its target T2, Taq DNA polymerase F667Y (Thermus aquaticus, UniProt P19821, F667Y).
T2 construct: to the gene that produces the full length Taq DNA polymerase; made in house
The test is classed as biochemical. The conditions noted are these: for D, discrimination factor (ratio of the use of a specific dNTP to the use of the comparable ddNTP at equal concentrations): 100 µM 4dNTPs and 100 µM of one ddNTP, 5 mM MgCl2, 70 °C; for Incorporation Rate Ratios (dN/ddN): absolute ratios obtained in Example 6 (1:1 dNTPs to ddNTPs).
Source text: as §1, §2, §3, §4

Test [2] has as its target T3, E. coli DNA polymerase I (Klenow fragment) F762Y (Escherichia coli, UniProt P00582, F762Y).
T3 construct: The large fragment of E. coli DNA polymerase I, commonly called the Klenow fragment; made in house; T7 RNA polymerase promoter; purified by ion exchange chromatography
The test is classed as biochemical. The conditions noted are these: for D, discrimination factor (ratio of the use of a specific dNTP to the use of the comparable ddNTP at equal concentrations): 100 µM 4dNTPs and 100 µM of one ddNTP, 5 mM MgCl2, 37 °C; for Incorporation Rate Ratios (dN/ddN): absolute ratios obtained in Example 6 (1:1 dNTPs to ddNTPs).
Source text: as §1, §2, §3, §4

T3 sequence (P00582 324-928 F762Y): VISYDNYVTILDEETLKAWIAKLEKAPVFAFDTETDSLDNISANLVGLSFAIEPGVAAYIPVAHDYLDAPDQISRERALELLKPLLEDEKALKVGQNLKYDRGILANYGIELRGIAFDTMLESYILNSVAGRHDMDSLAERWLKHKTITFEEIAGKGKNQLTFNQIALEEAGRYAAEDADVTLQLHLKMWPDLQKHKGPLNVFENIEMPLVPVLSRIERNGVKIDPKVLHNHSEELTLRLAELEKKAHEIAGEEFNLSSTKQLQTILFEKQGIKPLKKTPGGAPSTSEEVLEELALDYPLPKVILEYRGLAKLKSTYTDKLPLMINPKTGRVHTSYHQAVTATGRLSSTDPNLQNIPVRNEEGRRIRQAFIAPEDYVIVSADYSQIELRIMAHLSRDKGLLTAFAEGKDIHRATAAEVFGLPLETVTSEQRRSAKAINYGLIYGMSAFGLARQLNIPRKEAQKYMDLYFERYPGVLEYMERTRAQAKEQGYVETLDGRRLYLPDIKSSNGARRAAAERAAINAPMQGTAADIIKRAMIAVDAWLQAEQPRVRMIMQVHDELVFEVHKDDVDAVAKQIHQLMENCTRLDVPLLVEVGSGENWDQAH
T1 sequence (P00581 other isoform, or with tags, fused parts or gaps DEL118-145): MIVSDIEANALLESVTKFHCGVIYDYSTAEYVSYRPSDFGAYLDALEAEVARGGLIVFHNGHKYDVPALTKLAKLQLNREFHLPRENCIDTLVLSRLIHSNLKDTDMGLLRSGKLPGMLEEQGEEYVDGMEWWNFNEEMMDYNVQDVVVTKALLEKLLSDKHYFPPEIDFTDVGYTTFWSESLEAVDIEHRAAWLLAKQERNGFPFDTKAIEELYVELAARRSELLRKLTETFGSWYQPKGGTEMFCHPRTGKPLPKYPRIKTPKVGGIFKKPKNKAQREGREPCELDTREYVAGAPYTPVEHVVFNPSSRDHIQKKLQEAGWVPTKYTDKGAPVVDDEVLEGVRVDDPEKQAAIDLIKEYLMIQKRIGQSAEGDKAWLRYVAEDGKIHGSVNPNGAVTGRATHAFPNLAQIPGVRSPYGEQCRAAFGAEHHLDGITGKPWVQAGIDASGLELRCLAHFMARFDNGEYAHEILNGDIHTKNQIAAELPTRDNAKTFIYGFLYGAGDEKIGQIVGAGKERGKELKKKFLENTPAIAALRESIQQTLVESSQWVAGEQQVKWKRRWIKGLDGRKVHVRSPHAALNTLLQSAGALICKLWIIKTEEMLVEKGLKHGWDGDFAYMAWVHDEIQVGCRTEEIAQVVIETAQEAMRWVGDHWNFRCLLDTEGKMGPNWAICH
T1 sequence (P0AA25 2-109, stated change not applied, further chain): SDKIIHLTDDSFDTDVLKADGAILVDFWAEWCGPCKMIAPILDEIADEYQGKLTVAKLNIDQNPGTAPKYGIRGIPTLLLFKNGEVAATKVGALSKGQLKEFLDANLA
T2 sequence (P19821 whole entry F667Y): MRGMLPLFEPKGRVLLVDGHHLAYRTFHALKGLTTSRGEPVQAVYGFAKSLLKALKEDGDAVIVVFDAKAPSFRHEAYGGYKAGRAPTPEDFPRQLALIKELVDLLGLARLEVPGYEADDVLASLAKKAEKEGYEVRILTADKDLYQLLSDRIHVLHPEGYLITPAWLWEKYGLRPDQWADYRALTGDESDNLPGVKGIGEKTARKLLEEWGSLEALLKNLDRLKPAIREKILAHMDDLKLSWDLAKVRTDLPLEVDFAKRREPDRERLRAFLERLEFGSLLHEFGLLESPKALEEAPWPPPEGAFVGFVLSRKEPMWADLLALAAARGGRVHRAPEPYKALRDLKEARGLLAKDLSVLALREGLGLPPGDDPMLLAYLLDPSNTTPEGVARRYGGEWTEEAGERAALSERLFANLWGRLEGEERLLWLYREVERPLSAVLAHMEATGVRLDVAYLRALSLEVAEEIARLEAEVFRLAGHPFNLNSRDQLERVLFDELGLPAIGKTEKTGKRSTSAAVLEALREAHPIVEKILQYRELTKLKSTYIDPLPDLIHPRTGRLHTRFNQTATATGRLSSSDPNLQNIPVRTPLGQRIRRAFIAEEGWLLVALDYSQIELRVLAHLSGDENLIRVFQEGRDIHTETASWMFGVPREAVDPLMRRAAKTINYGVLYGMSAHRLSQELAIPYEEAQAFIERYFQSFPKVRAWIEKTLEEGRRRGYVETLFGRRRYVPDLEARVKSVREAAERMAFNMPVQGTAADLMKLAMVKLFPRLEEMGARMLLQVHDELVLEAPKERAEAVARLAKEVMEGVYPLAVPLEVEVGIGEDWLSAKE

For the compound `Nc1ncnc2c1ncn2[C@H]1CC[C@@H](COP(=O)(O)OP(=O)(O)OP(=O)(O)O)O1` [ddATP], the results for the “D, discrimination factor (ratio of the use of a specific dNTP to the use of the comparable ddNTP at equal concentrations)” value (in test [1]; on Taq DNA polymerase F667Y; in test [2]) were 2.3, 0.59 and 0.72, respectively. Also, the “Incorporation Rate Ratios (dN/ddN)” value is given as 3.3 in test [1], 0.59 on Taq DNA polymerase F667Y and 0.72 in test [2].

For `Cc1cn([C@H]2CC[C@@H](COP(=O)(O)OP(=O)(O)OP(=O)(O)O)O2)c(=O)[nH]c1=O` [ddTTP], the “D, discrimination factor (ratio of the use of a specific dNTP to the use of the comparable ddNTP at equal concentrations)” value in test [1] is reported as 1.8; at Taq DNA polymerase F667Y, 0.56; in test [2], 0.54. Moreover, the “Incorporation Rate Ratios (dN/ddN)” value in test [1] was 2.8; at Taq DNA polymerase F667Y, 0.56; in test [2], 0.54.

On to `Nc1ccn([C@H]2CC[C@@H](COP(=O)(O)OP(=O)(O)OP(=O)(O)O)O2)c(=O)n1` [ddCTP], for which the results for the “D, discrimination factor (ratio of the use of a specific dNTP to the use of the comparable ddNTP at equal concentrations)” value (in test [1]; at Taq DNA polymerase F667Y; in test [2]) were 2.7, 0.32 and 0.75, respectively. The entries for the “Incorporation Rate Ratios (dN/ddN)” value (in test [1]; on Taq DNA polymerase F667Y; in test [2]) were 3.7, 0.32 and 0.75, respectively.

In the case of `Nc1nc2c(ncn2[C@H]2CC[C@@H](COP(=O)(O)OP(=O)(O)OP(=O)(O)O)O2)c(=O)[nH]1` [ddGTP], the “D, discrimination factor (ratio of the use of a specific dNTP to the use of the comparable ddNTP at equal concentrations)” value in test [1] stood at 2.2; on Taq DNA polymerase F667Y, 0.45; in test [2], 0.56. Also, the “Incorporation Rate Ratios (dN/ddN)” value in test [1] came to 3.2; at Taq DNA polymerase F667Y, 0.45; in test [2], 0.56.
